Source: patent US7678941B2, “Polyoxyalkylene ammonium salts and their use as antistatic agents” (3M Innovative Properties Company, priority 2001, dated 2010)

Assays:
[1] = Surface Resistivity Test (ASTM D-257) of topically coated polyester film; settings: 72° F., 27% relative humidity; for Surface Resistivity 1% MEK solution: 1% solution in MEK coated on polyester film; for Surface Resistivity 6% MEK: 6% solution in MEK coated on polyester film
Method: Test Method IV—Surface Resistivity Test
The Surface Resistivity Test was conducted according to the procedure of ASTM Standard D-257; “D.C. Resistance or Conductance of Insulating Materials”. The surface resistivity was measured under these conditions using an ETS Model 872 Wide Range Resistance Meter fitted with a Model 803B probe (Electro-Tech Systems, Inc., Glenside, Pa.). This apparatus applies an external voltage of 10 Volts across two concentric ring electrodes and provides surface resistivity readings in ohm/cm^2. The room temperature was 72° F. and there was a 27% relative humidity.
Topically Coated Polyester Film.
A 1% and 6% solution of the antistatic agent to be tested in methylethyl ketone (MEK) was prepared. About 2 mL of solution was pipetted onto the top of a sheet of polyester film with 25.5 cm by 17.8 cm dimensions. The solution was then drawn over the film using a #12 wire wound bar. The resulting coating was dried in a forced air oven for 2.5 minutes at 65° C.

[2] = Thermal gravimetric analysis (TGA); assay type: physicochemical; settings: for Wt. % remaining @ given Temp: nitrogen, 10° C. per minute ramp; for weight loss compared with chloride salt of the same cation: processing range of 200-320° C.
Method: Test Methods Test Method I—Thermal Gravimetric Analysis (TGA)
The thermal decomposition of each salt was determined by thermal gravimetric analysis (TGA) under an inert nitrogen atmosphere using a 10° C. per minute temperature ramp using a PerkinElmer Thermogravimetric Analyzer TGA 7, manufactured by PerkinElmer Instruments of Norwalk, Conn.
Table 3 provides thermal gravimetric data for antistats of the present invention and comparative antistats.

[3] = Surface tension determination (Kruss K12 Tensiometer, Wilhelmy plate); assay type: physicochemical
Method: Test Method III—Surface Tension Determination
All surface tensions were determined using a Kruss K12 Tensiometer. It was integrated with an automatic dosimat and a computer, using a software package for dynamic contact angle (K121). The program was run using a Wilhelmy platinum plate (PL12) and glass sample vessel (GL7). All parts referenced above including instrument and computer can be purchased directly from Kruss USA, Charlotte, N.C.

[4] = Bioelimination study, amount of fluorochemical sulfonate in male rat liver tissue; assay type: in vivo; settings: for Amount of Sulfonate, Day 1N / Amount of Sulfonate, Day 1 / Amount of Sulfonate, Day 14N / Amount of Sulfonate, Day 14 / Amount of Sulfonate, Day 28N / Amount of Sulfonate, Day 28: male rat liver; for Amount of Sulfonate, Day 1N / Amount of Sulfonate, Day 14N / Amount of Sulfonate, Day 28N: normalized to a feeding level of 3 mg/kg body weight per day; for Amount of Sulfonate, Day 1 / Amount of Sulfonate, Day 14 / Amount of Sulfonate, Day 28: potassium salts dosed at 30 (C4), 10 (C6), 3 (C8) mg/kg body weight/day; for elimination from the body: tested in the form of its potassium salt
Method: Bioelimination Study with Perfluorobutanesulfonate
Comparative study of potassium perfluorobutanesulfonate (using a dose level of 30 mg/kg body weight/day), potassium perfluorohexanesulfonate (using a dose level of 10 mg/kg body weight/day), and potassium perfluorooctanesulfonate (using a dose level of 3 mg/kg body weight/day).

[5] = at 28 days following completion of feeding, after normalization to the same feeding levels
[6] = liver amount at 28 days following completion of feeding
[7] = liver amount immediately following completion of feeding

Compound: CH3CH2C[CH2(OCH2CH(CH3))xNH3^+][CH2(OCH2CH(CH3))yNH^3^+][CH2(OCH2CH(CH3))zNH3^+][^−N(SO2CF3)2]3 where x+y+z˜5.3; JEFFAMINE™ T-403 DMI salt [Antistat 3]
- Surface Resistivity 1% MEK solution [1]: 1.7 × 10^9 Ohm/cm^2
- Surface Resistivity 6% MEK [1]: 1.1 × 10^9 Ohm/cm^2

Compound: [C12H25N^+(CH3)(CH2CH2O)mH(CH2CH2O)nH^−Cl] (m + n = 15) [ETHOQUAD ™ C/25]
- Wt. % remaining @ given Temp ([2]; 200° C.): 97.2 Wt. %
- Wt. % remaining @ given Temp ([2]; 240° C.): 89.4 Wt. %
- Wt. % remaining @ given Temp ([2]; 280° C.): 85.9 Wt. %
- Wt. % remaining @ given Temp ([2]; 320° C.): 81.8 Wt. %

Compound: O=S(=O)([N-]S(=O)(=O)C(F)(F)C(F)(F)C(F)(F)C(F)(F)F)C(F)(F)C(F)(F)C(F)(F)C(F)(F)F.[K+] [C4F9SO2NKSO2C4F9, potassium bis(perfluorobutanesulfonyl)imide]
- surface energy ([3]; 10 ppm in water): 61.85 dyne/cm
- surface energy ([3]; 100 ppm in water): 41.61 dyne/cm
- surface energy ([3]; 1000 ppm in water): 34.02 dyne/cm

Compound: CH3CH2C[CH2(OCH2CH(CH3))xNH3^+][CH2(OCH2CH(CH3))yNH3^+][CH2(OCH2CH(CH3))zNH3^+][—N(SO2C4F9)2]3 where x+y+z˜5.3; JEFFAMINE™ T-403 DBI salt [Antistat 2]
- Surface Resistivity 1% MEK solution [1]: 2.4 × 10^10 Ohm/cm^2
- Surface Resistivity 6% MEK [1]: 1.5 × 10^11 Ohm/cm^2

Compound: [CH3(OCH2CH2)19(OCH2CHCH3)2NH3^+][^−N(SO2CF3)2] [Antistat 6]
- Surface Resistivity 1% MEK solution [1]: 1.6 × 10^9 Ohm/cm^2
- Surface Resistivity 6% MEK [1]: 7.8 × 10^9 Ohm/cm^2

Compound: [(+)H3NCH(CH3)CH2[OCH(CH3)CH2]a[OCH2CH2]8.5[OCH2CH(CH3)]CNH3(+)][—N(SO2CF3)2]2 (a+c=2.5); JEFFAMINE™ XJT-500 [^—N(SO2CF3)2]salt [Antistat 7]
- Surface Resistivity 1% MEK solution [1]: 1.2 × 10^9 Ohm/cm^2
- Surface Resistivity 6% MEK [1]: 3.7 × 10^8 Ohm/cm^2

Compound: [C18H37N^+(CH3)(CH2CH2O)mH(CH2CH2O)nH^−Cl] (m + n = 15) [ETHOQUAD ™ 18/25]
- Wt. % remaining @ given Temp ([2]; 200° C.): 97.6 Wt. %
- Wt. % remaining @ given Temp ([2]; 240° C.): 90.8 Wt. %
- Wt. % remaining @ given Temp ([2]; 280° C.): 85.5 Wt. %
- Wt. % remaining @ given Temp ([2]; 320° C.): 82.0 Wt. %

Compound: [(+)H3NCH(CH3)CH2[OCH(CH3)CH2]a[OCH2CH2]8.5[OCH2CH(CH3)]CNH3(+)][C8F17SO3^−]2 (a+c=2.5) [Comparative Antistat 1]
- Surface Resistivity 1% MEK solution [1]: 1.6 × 10^11 Ohm/cm^2
- Surface Resistivity 6% MEK [1]: 1.5 × 10^11 Ohm/cm^2

Compound: [(+)H3NCH(CH3)CH2[OCH(CH3)CH2]a[OCH2CH2]8.5[OCH2CH(CH3)]cNH3(+)][—N(SO2C4F9)2]2 (a+c=2.5); JEFFAMINE™ XJT-500 DBI salt [Antistat 1]
- Surface Resistivity 1% MEK solution [1]: 8.5 × 10^9 Ohm/cm^2
- Surface Resistivity 6% MEK [1]: 3.1 × 10^9 Ohm/cm^2

Compound: [C18H37N^+(CH3)(CH2CH2O)mH(CH2CH2O)nH][^−N(SO2CF3)2]; (m+n=15) [Antistat 5]
- Wt. % remaining @ given Temp ([2]; 200° C.): 99.6 Wt. %
- Wt. % remaining @ given Temp ([2]; 240° C.): 99.2 Wt. %
- Wt. % remaining @ given Temp ([2]; 280° C.): 98.9 Wt. %
- Wt. % remaining @ given Temp ([2]; 320° C.): 98.0 Wt. %
- weight loss compared with chloride salt of the same cation [2]: less weight loss than ETHOQUAD™ 18/25

Compound: O=S(=O)([O-])C(F)(F)C(F)(F)C(F)(F)C(F)(F)F.[K+] [Antistat C4F9SO3K, Potassium perfluorobutane sulfonate]
- surface energy ([3]; 10 ppm in water): 70 dyne/cm
- surface energy ([3]; 100 ppm in water): 67.5 dyne/cm
- surface energy ([3]; 1000 ppm in water): 53 dyne/cm
- factor lower than C6F13SO3^− [4, 5]: 4400
- factor lower than C6F13SO3^− [4, 6]: > 1400
- factor lower than C6F13SO3^− [4, 7]: > 100
- Amount of Sulfonate, Day 1N [4]: 0.31 ppm
- Amount of Sulfonate, Day 1 [4]: 3.09 ± 1.58 ppm
- Amount of Sulfonate, Day 14N [4]: 0.0126 ppm
- Amount of Sulfonate, Day 14 [4]: 0.126 ± 0.084 ppm
- Amount of Sulfonate, Day 28N [4]: 0.0025 ppm
- Amount of Sulfonate, Day 28 [4]: 0.025 ± 0.015 ppm
- elimination from the body ([4]; listed as C4F9SO3^−): unexpectedly fast and effective elimination
- elimination from the body ([4]; listed as perfluorobutanesulfonate): eliminates from the body more rapidly than perfluorohexanesulfonate and much more rapidly than perfluorooctanesulfonate

Compound: [C12H25N^+(CH3)(CH2CH2O)mH(CH2CH2O)nH][^−N(SO2CF3)2]; (m+n=15) [Antistat 4]
- Wt. % remaining @ given Temp ([2]; 200° C.): 99.7 Wt. %
- Wt. % remaining @ given Temp ([2]; 240° C.): 99.5 Wt. %
- Wt. % remaining @ given Temp ([2]; 280° C.): 99.3 Wt. %
- Wt. % remaining @ given Temp ([2]; 320° C.): 98.6 Wt. %
- weight loss compared with chloride salt of the same cation [2]: less weight loss than ETHOQUAD™ C/25

Compound: [CH3(OCH2CH2)19(OCH2CHCH3)2NH3^+][^−O3SCF3] [Comparative Antistat 2]
- Surface Resistivity 1% MEK solution [1]: 1.5 × 10^12 Ohm/cm^2
- Surface Resistivity 6% MEK [1]: 1.6 × 10^12 Ohm/cm^2

Compound: O=S(=O)([O-])C(F)(F)C(F)(F)C(F)(F)C(F)(F)C(F)(F)C(F)(F)F.[K+] [C6F13SO3^−, potassium perfluorohexanesulfonate]
- factor lower than C8F17SO3^− [4, 5]: 21.5
- factor lower than C8F17SO3^− [4, 6]: 6.5
- factor lower than C8F17SO3^− [4, 7]: 1.3
- Amount of Sulfonate, Day 1N [4]: 98 ppm
- Amount of Sulfonate, Day 1 [4]: 327 ± 52 ppm
- Amount of Sulfonate, Day 14N [4]: 19 ppm
- Amount of Sulfonate, Day 14 [4]: 61.9 ± 11.7 ppm
- Amount of Sulfonate, Day 28N [4]: 11 ppm
- Amount of Sulfonate, Day 28 [4]: 36.3 ± 7.4 ppm

Compound: O=S(=O)([O-])C(F)(F)C(F)(F)C(F)(F)C(F)(F)C(F)(F)C(F)(F)C(F)(F)C(F)(F)F.[K+] [Antistat C8F17SO3K, Potassium perfluorooctanesulfonate]
- surface energy ([3]; 10 ppm in water): 67.68 dyne/cm
- surface energy ([3]; 100 ppm in water): 54.09 dyne/cm
- surface energy ([3]; 1000 ppm in water): 33.17 dyne/cm
- Amount of Sulfonate, Day 1N [4]: 419 ppm
- Amount of Sulfonate, Day 1 [4]: 419 ± 86 ppm
- Amount of Sulfonate, Day 14N [4]: 309 ppm
- Amount of Sulfonate, Day 14 [4]: 309 + 34 ppm
- Amount of Sulfonate, Day 28N [4]: 237 ppm
- Amount of Sulfonate, Day 28 [4]: 237 ± 25 ppm
